Measurements as given in ChEMBL document CHEMBL1132868, “A new class of highly cytotoxic diketopiperazines” (Bioorg Med Chem Lett, 2000).

Tests used:
L1210 = experiment: The compound was tested for cytotoxic activity using standard L1210 cell based cytotoxicity assay; type: functional; conditions: Mus musculus
Nucleic Acid = experiment: Compound was evaluated for DNA (poly[dA]-poly[dT]) binding affinity; type: nucleic-acid assay

Nc1ccc2c(c1)cc1c(=O)n3c(cc4cc(N)ccc43)c(=O)n12
IC50 (L1210): 30 µM

CN(C)CCCC(=O)Nc1ccc(C(=O)Nc2ccc3c(c2)cc2c(=O)n4c(cc5cc(NC(=O)c6ccc(NC(=O)CCCN(C)C)cc6)ccc54)c(=O)n23)cc1
IC50 (L1210): 7 µM

CC(C)(C)OC(=O)Nc1ccc2c(c1)cc1c(=O)n3c(cc4cc(NC(=O)OC(C)(C)C)ccc43)c(=O)n12
IC50 (L1210): 29 µM

CN(C)CCCC(=O)Nc1csc(C(=O)Nc2ccc3c(c2)cc2c(=O)n4c(cc5cc(NC(=O)c6csc(NC(=O)CCCN(C)C)n6)ccc54)c(=O)n23)n1
IC50 (L1210): 4 µM

CN(C)CCCC(=O)Nc1ccc2c(c1)cc1c(=O)n3c(cc4cc(NC(=O)CCCN(C)C)ccc43)c(=O)n12
IC50 (L1210): 0.034 µM | K (Nucleic Acid): 203000
